The text below walks through data of patent US20010018956A1, “Multi-component system for modifying, degrading or bleaching lignin, lignin-containing materials or similar substances and processes for its use” (CONSORTIUM FUR ELEKTROCHEMISCHE INDUSTRIE GmbH, priority 1996, published 2001).

Each structure is given as a SMILES string.

The data set in a line: Enzymatic bleaching of softwood sulfate pulp with laccase and mediator; kappa number determined after NaOH extraction. The following applies: laccase from Trametes versicolor 15 U/g of pulp; incubation time 2 hours; pH 4.5; 45° C.; oxygen pressure 1-10 bar; mediator dosage per 5 g of pulp as in table.

Protocol: 5 g of bone-dry pulp (softwood O2 delignified), pulp consistency 30% (about 17 g moist) are added to the following solutions:
A) 56.5 mg of N-hydroxyacetanilide are added to 20 ml of tap water, while stirring, and the pH is adjusted with 0.5 mol/l of H2SO4 solution such that pH 4.5 results after addition of the pulp and the enzyme.
B) An amount of laccase from Trametes versicolor is added to 5 ml of tap water such that an activity of 15 U (1 U=conversion of 1 μmol of ABTS/minute/ml of enzyme) per g of pulp results.
Solutions A and B are brought together and topped up to 33 ml. After addition of the pulp, the mixture is mixed with a dough kneader for 2 minutes.
The pulp is then introduced into a reaction bomb preheated to 45° C. and incubated under an increased oxygen pressure of 1-10 bar for 1-4 hours.
Thereafter, the pulp is washed over a nylon screen (30 gm) and extracted for 1 hour at 60° C. at a pulp consistency of 2% with 8% of NaOH per g of pulp.
After renewed washing of the pulp, the kappa number is determined.

Take `CC(=O)N(O)c1ccc(C#N)cc1` [N-hydroxy-4-cyanoacetanilide]: the Ligin degradation was found to be 35.6%.

Regarding `O=C(Oc1ccccc1)N(O)c1ccccc1` [Phenyl N-hydroxy-N-phenylcarbamate], the Ligin degradation was 20.0%.
